Laboratory results from patent EP1793006A2, “Nucleic acid ligands and improved methods for producing the same” (priority 1993, dated 1995).
Where a SMILES comes first, the peptide text is derived from it. The star is where a group is joined. pNA = O=[N+]([O-])c1ccc(N*)cc1; MeOSuc = COC(=O)CCC(=O)*

How the values were obtained:
[1] = molecular target: T1, T7 RNA polymerase (Escherichia phage T7, UniProt P00573); assay: Incorporation of modified nucleotide triphosphates into RNA by T7 RNA polymerase transcription; assay type: biochemical; conditions: for efficiency of transcription (incorporation) as compared to UTP: three hours, 2 mM ribonucleotide triphosphates, 100 nM double-stranded DNA template, 5 units/ul T7 RNA polymerase
T1 construct: purchased NEB
T1 sequence (P00573 whole entry): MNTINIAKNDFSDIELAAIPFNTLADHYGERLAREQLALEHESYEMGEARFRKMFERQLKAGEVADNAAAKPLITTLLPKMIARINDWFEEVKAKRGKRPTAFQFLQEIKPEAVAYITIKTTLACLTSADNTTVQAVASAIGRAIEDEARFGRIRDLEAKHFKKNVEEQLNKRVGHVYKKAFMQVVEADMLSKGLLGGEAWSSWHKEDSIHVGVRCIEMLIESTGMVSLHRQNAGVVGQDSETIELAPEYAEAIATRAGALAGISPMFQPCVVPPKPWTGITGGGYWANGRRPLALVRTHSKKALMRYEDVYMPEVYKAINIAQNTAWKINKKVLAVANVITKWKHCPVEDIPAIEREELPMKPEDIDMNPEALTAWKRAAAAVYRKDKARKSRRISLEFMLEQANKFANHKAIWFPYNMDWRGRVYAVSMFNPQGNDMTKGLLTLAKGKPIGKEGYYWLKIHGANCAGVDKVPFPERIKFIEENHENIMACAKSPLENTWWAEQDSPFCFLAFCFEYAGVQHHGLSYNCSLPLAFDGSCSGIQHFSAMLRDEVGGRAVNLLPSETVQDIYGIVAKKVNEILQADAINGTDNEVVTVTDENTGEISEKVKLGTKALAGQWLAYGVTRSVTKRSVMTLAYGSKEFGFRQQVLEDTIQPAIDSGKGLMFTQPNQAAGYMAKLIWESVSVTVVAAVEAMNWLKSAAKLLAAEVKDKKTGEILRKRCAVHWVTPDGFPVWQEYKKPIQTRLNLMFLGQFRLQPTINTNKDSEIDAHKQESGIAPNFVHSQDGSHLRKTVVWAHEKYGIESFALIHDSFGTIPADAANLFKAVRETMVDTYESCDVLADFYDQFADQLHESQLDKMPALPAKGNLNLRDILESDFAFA
Experimental: Incorporation of 5-modified uridines into RNA. Four prototypic 5-modified uridines, 5-AA-UTP, 5-F-12-UTP, 5-Dig-11-UTP, and 5-Br-UTP (shown in Figure 2) were incorporated into RNA by the T7.RNA polymerase under standard transcription conditions (40 mM Tris-Cl, pH 8.0, 12 mM MgCl2, 5 mM DTT, 1 mM spermidine, 0.002% Triton X-100, 4% PEG, 37°C). Autoradiogram of a 15% denaturing polyacrylamide gel showing products of transcription done with UTP, 5-AA-UTP, and 5-Br-UTP is shown in Figure 3. The efficiency of transcription was estimated from the total amounts of ^32P-radiolabelled transcript produced after three hours of incubation with 2 mM ribonucleotide triphosphates, 100 nM double-stranded DNA template, and 5 units/ul of T7 RNA polymerase (NEB). 5-AA-UTP, 5-F-12-UTP, 5-Dig-11-UTP, and 5-Br-UTP were incorporated with 28%, 51%, 23%, and 50% efficiency, respectively, as compared to UTP. No transcription was detectable when UTP was omitted from the transcription mixture.
The 2'-amino group of 2'-amino,2'-deoxyuridine is trifluoroacetylated (Imazawa et al. (1979) J. Org. Chem. 44:2039) in 82% yield. This intermediate is phosphorylated at the 5'-position (Ludwig and Eckstein (1989) J. Org. Chem. 54:631) in 61% yield. The 5-iodo derivative of the 2'-amino,2'-deoxyuridine 5'-triphosphate was prepared by mercuration (Dale et al. (1975) Biochemistry 14:2447) in a single step.
RGD-UTP transcription and purification. RGD-UTP was used in a T7 RNA polymerase reaction by direct substitution for normal UTP, and gave yields that were at least 50% of those obtainable with UTP. The concentration of RGD-UTP and other NTPs was 1 mM; the DNA template contained 5' and 3' fixed regions flanking a 30 base pair random sequence. The RNA transcript was purified by adsorption onto an anion exchange column (Mono Q)in a phosphate buffer containing 6 M urea and 50% formamide, and eluted with a gradient to 1 M NaCl (Figure 16). RGD-RNA eluted as one major peak from the column at a position in the gradient slightly ahead of the elution position of an equivalent RNA transcript made with normal UTP, consistent with the altered charge and perhaps altered conformation of the derivatized RNA.

[2] = molecular target: T2, Human neutrophil elastase (Homo sapiens, UniProt P08246); assay: Elastase inhibition assay with chromogenic tetrapeptide substrate; assay type: biochemical; conditions: Lineweaver-Burk plot
T2 construct: purchased Athens Research and Technology, Athens, Georgia
T2 sequence (P08246 30-267): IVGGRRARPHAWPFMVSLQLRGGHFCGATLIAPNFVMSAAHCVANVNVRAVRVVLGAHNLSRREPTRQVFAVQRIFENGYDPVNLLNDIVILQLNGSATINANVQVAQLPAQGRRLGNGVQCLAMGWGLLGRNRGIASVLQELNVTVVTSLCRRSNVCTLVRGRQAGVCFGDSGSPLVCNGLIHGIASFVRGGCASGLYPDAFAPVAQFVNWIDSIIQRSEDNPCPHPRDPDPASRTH
Description: Elastase inhibition assay. The assay for elastase inhibition is based on the use of a chromogenic tetrapeptide substrate. […] The rate of p-nitroanilide generation in the absence of inhibitor was used as the control.
Elastase Inhibition Assay. The assay for elastase inhibition is based on the use of a chromogenic tetrapeptide substrate. […] The rate of p-nitroanilide generation in the absence of inhibitor was used as the negative control; the positive control contained the irreversible inhibitor N-methoxysuccinyl-Ala-Ala-Pro-Val-chloromethyl ketone. OD values were plotted against time, and the slope used to determine the rate of enzyme activity.

[3] = tested on: TCT8-4 RNA; assay: Competition binding of xanthine derivatives, equilibrium filtration; conditions: for Ki: 1 µM 14C-theophylline, 3.3 µM TCT8-4 RNA, read-out: Kc; for Kc(c)/Kc(t): competitor relative to theophylline
Experimental: An attractive feature of a small molecule-RNA interaction is the opportunity to readily investigate quantitatively the relative contribution of various constituents of the small molecule to the overall binding. Competition binding experiments were conducted with a variety of xanthine derivatives and related compounds. In these experiments, the effect of competitor added at various concentrations on the ^14C-theophylline-TCT8-4 RNA interaction was measured. Of particular interest were the roles of CH3 residues at the 1, 3, and 7 positions; these were assessed both individually and in combination. In addition, 1,3-dimethyluric acid probes the 8-position, as it contains a keto oxygen there relative to theophylline, and hypoxanthine, lacking the 2-position keto oxygen of xanthine, permit assessment of this constituent.
Equilibrium filtration assays were performed by the addition of various concentrations of the potential competitor to 1 µM [^14C]-theophylline and 3.3 µM TCT8-4 RNA (SEQ ID NO:249) in a 150 µl reaction mixture containing 100 mM HEPES buffer. Each reaction was performed as described in Example 23. Competition data were fit using a standard competition equation and fitting procedure (Gill et al. (1991) J. Mol. Biol. 220:307) assuming a 1:1 stoichiometry of competitor to RNA. […] From such data a competitor dissociation constant (Kc) was obtained. Under the condition where theophylline and the specific competitor bind to the same site, Kc = Kd.

[4] = molecular target: Human neutrophil elastase (human) (UniProt P08246); assay: elastase inhibition assay with chromogenic substrate, Lineweaver-Burk plot (Figure 22)

Row | Compound | Ki [3] | Kc(c)/Kc(t) [3] | other results
1 | 5-fluorescein-12-uridine triphosphate [5-F-12-UTP] |  |  | efficiency of transcription (incorporation) as compared to UTP [1]: 51%
2 | N-methoxysuccinyl Ala-Ala-Pro-Val |  |  | Ki [2]: 920 µM
3 | N[C@@H]1[C@H](O)[C@@H](COP(=O)(O)OP(=O)(O)OP(=O)(O)O)O[C@H]1n1cc(I)c(=O)[nH]c1=O [5-iodo,2'-amino,2'-deoxyuridine 5'-triphosphate] |  |  | substrate for T7 RNA polymerase [1]: substrates for T7 RNA polymerase
4 | Cn1cnc2[nH]c(=O)[nH]c(=O)c21 [7-methylxanthine] | > 500 µM | > 1500 | competition, fold less efficient than xanthine [3]: at least 1500 fold
5 | 1-carboxypropyl theophylline [CP-Theophylline] | 0.93 ± 0.2 µM | 2.9 | 
6 | COC(=O)CCC(=O)N[C@@H](C)C(=O)N[C@@H](C)C(=O)N1CCC[C@H]1C(=O)N[C@H](C(=O)Nc1ccc([N+](=O)[O-])cc1)C(C)C [substrate, N-methoxysuccinyl-Ala-Ala-Pro-Val-p-nitroanilide] (MeOSuc-AAPV-pNA) |  |  | Km [2]: 160 µM
7 | Cn1c(=O)[nH]c2nc[nH]c2c1=O [1-methylxanthine] | 9 ± 0.3 µM | 28 | 
8 | O=c1[nH]c(=O)c2[nH]cnc2[nH]1 [Xanthine] | 8.5 ± 0.4 µM | 27 | competition, fold less effective than theophylline [3]: about 23 fold
9 | 5-digoxygenin-11-uridine triphosphate [5-Dig-11-UTP] |  |  | efficiency of transcription (incorporation) as compared to UTP [1]: 23%
10 | Cn1c(=O)c2c(ncn2C)n(C)c1=O [Caffeine, 1,3,7-trimethylxanthine] | 3500 ± 1500 µM | 10900 | recognition by TCT8-4 RNA [3]: extremely poor competitor
11 | Cn1c(=O)c2[nH]cnc2n(C)c1=O [Theophylline, 1,3-dimethylxanthine] | 0.32 ± 0.13 µM | 1 | Kd ([3]; read-out: Kd for theophylline to RNA used for the competition fit): 0.45 µM
12 | N[C@@H]1[C@H](O)[C@@H](COP(=O)(O)OP(=O)(O)OP(=O)(O)O)O[C@H]1n1ccc(=O)[nH]c1=O [2'-amino,2'-deoxyuridine 5'-triphosphate] |  |  | substrate for T7 RNA polymerase [1]: substrates for T7 RNA polymerase
13 | O=c1[nH]cnc2nc[nH]c12 [Hypoxanthine] | 49 ± 10 µM | 153 | competition, fold less efficient than xanthine [3]: approximately 5 fold
14 | Cn1cnc2c1c(=O)[nH]c(=O)n2C [3,7-dimethylxanthine] | > 500 µM | > 1500 | recognition by TCT8-4 RNA [3]: recognized poorly
15 | Cn1c(=O)[nH]c(=O)c2[nH]cnc21 [3-methylxanthine] | 2 ± 0.7 µM | 6.3 | competition, fold better relative to xanthine [3]: approximately 5 fold
16 | N-methoxysuccinyl Ala-Ala-Pro-Val (SEQ ID NO:44) (peptide) |  |  | Ki [4]: 920 µM
17 | NCC=Cc1cn(C2OC(COP(=O)(O)OP(=O)(O)OP(=O)(O)O)C(O)C2O)c(=O)[nH]c1=O (stereo not shown) [5-AA-UTP, 5-(3-aminoallyl)uridine triphosphate] |  |  | efficiency of transcription (incorporation) as compared to UTP [1]: 28%
18 | O=c1[nH]c(=O)n([C@@H]2O[C@H](COP(=O)(O)OP(=O)(O)OP(=O)(O)O)[C@@H](O)[C@H]2O)cc1Br [5-Br-UTP, 5-bromouridine triphosphate] |  |  | efficiency of transcription (incorporation) as compared to UTP [1]: 50%
